From US11008304B2, “Tetrazole containing apoptosis signal-regulating kinase 1 inhibitors and methods of use thereof” (ENANTA PHARMACEUTICALS, INC., priority 2018, dated 2021) come the findings set out here.

This test deals with ASK1 kinase (Homo sapiens (Human), UniProt Q99683). Description: HTRF KinEASE assay of ASK1 kinase activity inhibition. The class given is biochemical. The following applies: 5 nM ASK1, 1 uM STK3 peptide substrate, 100 uM ATP, TR-FRET readout. How it is done: The ability (IC50) of compounds to inhibit ASK1 kinase activity was determined by HTRF® KinEASE™ Assay System. ASK1 was purchased from Thermofisher (Catalogue #PV4011), ATP was purchased from Sigma (Catalogue #A7699), HTRF® KinEASE™ Assay System was obtained from Cisbio (Bedford, Mass.). ½ Area plate was purchased from Perkin Elmer (Catalogue ##6005560). HTRF® KinEASE™-STK is a generic method for measuring serine/threonine kinase activities using a time-resolved fluorescence resonance energy transfer (TR-FRET) immunoassay. The IC50 value for each compound was determined in the presence of compound (various concentration from 0 to 10 μM) and a fixed amount of ATP and peptide substrates. The test compound, 1 uM STK3 peptide substrate, and 5 nM of ASK1 kinase are incubated with kinase reaction buffer containing 50 mM HEPES pH 7.5, 0.01% BRIJ-35, 10 mM MgCl2, and 1 mM EGTA for 30 minutes. 100 uM ATP is added to start kinase reaction and incubated for 3 hours. The STK3-antibody labeled with Eu^3+-Cryptate and 125 nM streptavidin-XL665 are mixed in a single addition with stop reagents provided by the Cisbio kit used to stop the kinase reaction. Fluorescence is detected using an Envision Multilabeled 2014 reader from PerkinElmer. The Fluorescence is measured at 615 nm (Cryptate) and 665 nm (XL665) and a ratio of 665 nm/615 nm is calculated for each well. The resulting TR-FRET is proportional to the phosphorylation level. Staurosporine was used as the positive control. IC50 was determined by XLfit 5.3. By using above method, the inhibition of ASK1 was tested for the compound of formula (I). IC50 ranges are as follows: A<1 nM; 1 nM<B<10 nM; 10 nM<C<100 nM; 100 nM<D<1 μM; E>1 μM.
ASK1 kinase, sequence (Q99683 whole entry): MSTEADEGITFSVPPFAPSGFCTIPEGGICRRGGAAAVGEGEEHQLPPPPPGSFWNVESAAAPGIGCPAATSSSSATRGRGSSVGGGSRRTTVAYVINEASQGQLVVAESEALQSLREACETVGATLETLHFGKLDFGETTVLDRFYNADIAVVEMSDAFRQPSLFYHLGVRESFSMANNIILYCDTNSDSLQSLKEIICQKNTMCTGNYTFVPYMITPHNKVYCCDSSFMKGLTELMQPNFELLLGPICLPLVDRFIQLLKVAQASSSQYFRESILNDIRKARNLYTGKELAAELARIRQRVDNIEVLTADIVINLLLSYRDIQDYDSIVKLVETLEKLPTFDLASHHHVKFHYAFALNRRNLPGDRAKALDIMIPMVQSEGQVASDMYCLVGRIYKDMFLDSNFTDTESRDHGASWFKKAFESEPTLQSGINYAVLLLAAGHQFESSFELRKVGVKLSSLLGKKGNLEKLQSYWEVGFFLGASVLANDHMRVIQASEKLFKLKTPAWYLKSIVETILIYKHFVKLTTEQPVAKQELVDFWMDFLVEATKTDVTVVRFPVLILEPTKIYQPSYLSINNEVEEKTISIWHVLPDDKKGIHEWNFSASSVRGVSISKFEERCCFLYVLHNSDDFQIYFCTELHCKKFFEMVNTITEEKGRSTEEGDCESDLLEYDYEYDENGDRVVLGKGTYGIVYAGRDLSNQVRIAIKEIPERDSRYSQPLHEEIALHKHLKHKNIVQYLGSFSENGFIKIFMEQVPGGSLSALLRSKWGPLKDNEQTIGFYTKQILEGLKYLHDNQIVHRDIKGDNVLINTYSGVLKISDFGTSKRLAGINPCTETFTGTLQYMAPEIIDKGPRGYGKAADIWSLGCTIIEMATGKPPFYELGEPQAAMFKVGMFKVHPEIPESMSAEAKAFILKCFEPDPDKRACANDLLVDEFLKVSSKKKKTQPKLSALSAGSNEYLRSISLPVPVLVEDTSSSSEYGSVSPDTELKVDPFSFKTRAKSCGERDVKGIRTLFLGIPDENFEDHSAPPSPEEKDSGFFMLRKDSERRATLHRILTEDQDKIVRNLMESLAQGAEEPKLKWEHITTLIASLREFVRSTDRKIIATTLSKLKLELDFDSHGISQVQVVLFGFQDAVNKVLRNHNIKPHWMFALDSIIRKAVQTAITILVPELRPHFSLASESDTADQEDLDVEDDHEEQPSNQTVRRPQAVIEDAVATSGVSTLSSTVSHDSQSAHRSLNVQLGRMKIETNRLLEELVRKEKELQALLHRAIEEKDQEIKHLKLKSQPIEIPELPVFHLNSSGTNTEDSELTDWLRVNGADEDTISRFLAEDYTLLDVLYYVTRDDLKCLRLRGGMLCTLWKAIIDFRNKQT
(In TR-FRET formats the signal depends on donor and acceptor labels being close together.)
The IC50 is the point on the concentration scale where inhibition reaches its midpoint. A low value points to greater potency. Molecule `Cc1cc(F)c(C(=O)Nc2cccc(-c3nnnn3[C@@H]3CCOC3)n2)cc1-c1cnn(C2CC2)c1` [Example 82] showed an IC50 of 1 to 10 nM.
In the case of `Cc1cnc(C(=O)Nc2cccc(-c3nnnn3[C@H](C)CO)n2)cc1-c1cnn(C2CC2)c1` [Example 13] it was 1 to 10 nM.
In the case of `Cc1cc(F)c(C(=O)Nc2cccc(-c3nnnn3[C@H](C)CO)n2)cc1-c1ccn(C(C)C)n1` [Example 60] it was 10 to 100 nM.
In turn, `Cc1cc(F)c(C(=O)Nc2cccc(-c3nnnn3[C@H](C)CO)n2)cc1-c1cnn(C(C)C)c1` [Example 50] had an IC50 of 1 to 10 nM.
Turning to `Cc1cnc(C(=O)Nc2cccc(-c3nnnn3[C@H](C)CO)n2)cc1-c1ccn(C(C)C)n1` [Example 35], the IC50 fell in the range of 1 to 10 nM.
In turn, `Cc1cc(F)c(C(=O)Nc2cccc(-c3nnnn3C(C)C)n2)cc1-c1cnn(C2CC2)c1` [Example 46] yielded an IC50 of 1 to 10 nM.
For `CC(C)n1nnnc1-c1cccc(NC(=O)c2cc(-c3cnn(C4CC4)c3)c(N3CCOCC3)cn2)n1` [Example 6] the value was 1 to 10 nM; for `Cc1cc(F)c(C(=O)Nc2cccc(-c3nnnn3[C@H]3CCOC3)n2)cc1-c1cnn(C2CC2)c1` [Example 81], 1 to 10 nM.
In the case of `CC(C)n1nnnc1-c1nc(NC(=O)c2cc(-c3cnn(C4CC4)c3)c(C(F)(F)F)cn2)cs1` [Example 15] it was 10 to 100 nM.
In the case of `Cc1cnc(C(=O)Nc2cccc(-c3nnnn3C(C)C)n2)cc1-c1cnc(C2CC2)s1` [Example 42] it was 1 to 10 nM.
`Cc1cnc(C(=O)Nc2cccc(-c3nnnn3C(C)C)n2)cc1-c1ccc(C2CC2)s1` [Example 44]: the IC50 fell in the range of 10 to 100 nM.
In the case of `CC(C)n1nnnc1-c1nc(NC(=O)c2cc(-c3cnn(C4CC4)c3)c(N3CCN(C)CC3)cn2)cs1` [Example 12] it was 1 to 10 nM; in that of `Cc1cc(F)c(C(=O)Nc2cccc(-n3nnnc3C(C)C)n2)cc1-c1cnn(C(C)(C)C)c1` [Example 53], 1 to 10 nM.
In turn, `Cc1cc(F)c(C(=O)Nc2cccc(-n3nnnc3C(C)C)n2)cc1-c1cnn(C(F)(F)F)c1` [Example 56] gave an IC50 of 100 to 1000 nM.
In the case of `Cc1cc(F)c(C(=O)Nc2cccc(-c3nnnn3C(C)C)n2)cc1-c1ccc(C2CC2)s1` [Example 69] it was 10 to 100 nM; in that of `Cc1cnc(C(=O)Nc2cccc(-c3nnnn3C(C)C)n2)cc1-c1ccccn1` [Example 36], 10 to 100 nM.
For `CC(C)n1nnnc1-c1cccc(NC(=O)c2cc(-c3cnn(C4CC4)c3)c(F)cn2)n1` [Example 3] the value was 10 to 100 nM; for `Cc1cc(F)c(C(=O)Nc2cccc(-c3nnnn3C(C)C)n2)cc1-c1ccncc1` [Example 66], 10 to 100 nM; for `Cc1cnc(C(=O)Nc2cccc(-n3nnnc3C(C)C)n2)cc1-c1ccn(C(C)C)n1` [Example 34], more than 1000 nM.
The molecule `CC(C)n1nnnc1-c1cccc(NC(=O)c2cc(-c3cnn(C4CC4)c3)c(N3CCCC3)cn2)n1` [Example 4] registered an IC50 of 10 to 100 nM.
`Cc1cc(F)c(C(=O)Nc2cccc(-c3nnnn3C(C)C)n2)cc1-c1cccnc1` [Example 65] came in with an IC50 of 1 to 10 nM.
In the case of `Cc1ncc(-c2cc(C(=O)Nc3cccc(-c4nnnn4C(C)C)n3)c(F)cc2C)s1` [Example 67] it was 10 to 100 nM; in that of `COc1cc(C)c(-c2cnn(C)c2)cc1C(=O)Nc1cccc(-c2nnnn2C(C)C)n1` [Example 73], 1 to 10 nM.
